Experimental data: ChEMBL document CHEMBL5150076, “Discovery of Novel Orally Bioavailable Triazoles with Potent and Broad-Spectrum Antifungal Activity In Vitro and In Vivo” (J Med Chem, 2022)
≈ marks a conversion by molar mass, not a printed value.

Legend:
Candida albicans [1] = experiment: Antifungal activity against Candida albicans 12#; format: functional
Aspergillus fumigatus [2] = experiment: Antifungal activity against Aspergillus fumigatus 7544 incubated for 48 hrs by microbroth dilution method; format: functional
Pichia kudriavzevii [3] = experiment: Antifungal activity against Candida krusei 463; format: functional
Candida tropicalis [4] = experiment: Antifungal activity against Candida tropicalis 112936; format: functional
Candida parapsilosis [5] = experiment: Antifungal activity against Candida parapsilosis 700; format: functional; conditions: Lodderomyces parapsilosis
[6] = target: T1, Lanosterol 14-alpha demethylase (Candida albicans (strain SC5314 / ATCC MYA-2876) (Yeast), UniProt P10613); experiment: Inhibition of CYP51 in Candida albicans SC5314 assessed as ergosterol level at 0.0625 ug/ml measured after 12 hrs by GC-MS analysis (reference value: 72.58%); design: scale not given: the % may be the effect or the level left; conditions: dose 0.0625 µg/ml
[Candida] auris [7] = Antifungal activity against Candida auris D12; format: functional; conditions: Candidozyma auris
[Candida] auris [8] = Antifungal activity against Candida auris BS12372; format: functional; conditions: Candidozyma auris
Pichia kudriavzevii [9] = experiment: Antifungal activity against Candida krusei 629; format: functional
[10] = Half life in Sprague-Dawley rat at 5 mg/kg, po by LC-MS analysis; format: ADME, organism-based; conditions: in vivo
Candida albicans [11] = experiment: Antifungal activity against Candida albicans 14#; format: functional
Aspergillus fumigatus [12] = experiment: Antifungal activity against Aspergillus fumigatus 7544 infected in ICR mouse assessed as survival rate at 60 mg/kg, po qd infected with fungus for 2 hrs prior to compound addition for 7 days and measured for 20 days; format: functional; conditions: time 20 day
Candida albicans [13] = experiment: Antifungal activity against Candida albicans 20#; format: functional
[14] = AUC(0 to infinity) in Sprague-Dawley rat at 5 mg/kg, po by LC-MS analysis; format: ADME, organism-based; design: time infinity, dose 5 mg/kg, route po; conditions: in vivo
Cryptococcus neoformans [15] = experiment: Antifungal activity against Cryptococcus neoformans H99 incubated for 72 hrs by microbroth dilution method; format: functional
Candida albicans [16] = experiment: Antifungal activity against Candida albicans 25#; format: functional
Candida albicans [17] = experiment: Antifungal activity against Candida albicans 162; format: functional
Aspergillus fumigatus [18] = experiment: Antifungal activity against Aspergillus fumigatus 7544 infected in ICR mouse assessed as survival rate at 20 mg/kg, po qd infected with fungus for 2 hrs prior to compound addition for 7 days and measured for 20 days; format: functional; conditions: time 20 day
Candida parapsilosis [19] = experiment: Antifungal activity against Candida parapsilosis 660; format: functional; conditions: Lodderomyces parapsilosis
[20] = target: T1, Lanosterol 14-alpha demethylase; experiment: Inhibition of CYP51 in Candida albicans SC5314 assessed as lanosterol level at 0.0625 ug/ml measured after 12 hrs by GC-MS analysis (reference value: 2.18%); design: scale not given: the % may be the effect or the level left; conditions: dose 0.0625 µg/ml
Candida albicans [21] = experiment: Antifungal activity against Candida albicans 28#; format: functional
Candida albicans [22] = experiment: Antifungal activity against Candida albicans 305; format: functional
[23] = AUC(0 to infinity) in Sprague-Dawley rat at 2 mg/kg, iv by LC-MS analysis; format: ADME, organism-based; design: time infinity, dose 2 mg/kg, route iv; conditions: in vivo
Nakaseomyces glabratus [24] = experiment: Antifungal activity against Candida glabrata 537; format: functional
Nannizzia gypsea = experiment: Antifungal activity against Microsporum gypseum; format: functional
in vitro = conditions: human, Caco-2 cells; at 64 µg/mL
Candida parapsilosis [25] = experiment: Antifungal activity against Candida parapsilosis 90018; format: functional; conditions: Lodderomyces parapsilosis
Candida tropicalis [26] = experiment: Antifungal activity against Candida tropicalis ATCC750; format: functional
Nakaseomyces glabratus [27] = experiment: Antifungal activity against Candida glabrata ATCC2001; format: functional
Cryptococcus neoformans [28] = experiment: Antifungal activity against Cryptococcus neoformans 32605; format: functional
Pichia kudriavzevii [29] = experiment: Antifungal activity against Candida krusei 397; format: functional
[30] = Half life in Sprague-Dawley rat at 2 mg/kg, iv by LC-MS analysis; format: ADME, organism-based; conditions: in vivo
[31] = target: T1, Lanosterol 14-alpha demethylase; experiment: Inhibition of CYP51 in Candida albicans SC5314 assessed as sterol level at 0.0625 ug/ml measured after 12 hrs by GC-MS analysis (reference value: 25.23%); design: scale not given: the % may be the effect or the level left; conditions: dose 0.0625 µg/ml
Trichophyton rubrum = experiment: Antifungal activity against Trichophyton rubrum cmccftla; format: functional
Candida parapsilosis [32] = experiment: Antifungal activity against Candida parapsilosis 22019; format: functional; conditions: Lodderomyces parapsilosis
Pichia kudriavzevii [33] = experiment: Antifungal activity against Candida krusei 467; format: functional
Candida albicans [34] = experiment: Antifungal activity against Candida albicans Y0109; format: functional
[35] = Cmax in Sprague-Dawley rat at 5 mg/kg, po by LC-MS analysis; format: ADME, organism-based; design: dose 5 mg/kg, route po; conditions: in vivo
[Candida] auris [36] = Antifungal activity against Candida auris 791; format: functional; conditions: Candidozyma auris
Candida albicans [37] = experiment: Antifungal activity against Candida albicans SC5314 incubated for 24 hrs by microbroth dilution method; format: functional
[38] = Tmax in Sprague-Dawley rat at 5 mg/kg, po by LC-MS analysis; format: ADME, organism-based; conditions: in vivo
[39] = Cytotoxicity against HUVEC assessed as cell viability at 64 ug/ml incubated for 24 hrs by CCK-8 assay; format: toxicity, cell-based; conditions: human, HUVEC cells, at 64 µg/mL, read-out: Activity
[40] = Oral bioavailability in Sprague-Dawley rat at 5 mg/kg by LC-MS analysis; format: ADME, organism-based; conditions: in vivo
[41] = Induction of hemolysis in rabbit RBC at 64 ug/ml incubated for 1 hr; format: toxicity, cell-based, Oryctolagus cuniculus, Erythrocyte; conditions: red blood cells, at 64 µg/mL, read-out: Activity
[42] = target: T1, Lanosterol 14-alpha demethylase; experiment: Inhibition of CYP51 in Candida albicans SC5314 assessed as eburicol level at 0.0625 ug/ml measured after 12 hrs by GC-MS analysis (reference value: 0.00%); design: scale not given: the % may be the effect or the level left; conditions: dose 0.0625 µg/ml
[Candida] auris [43] = Antifungal activity against Candida auris 887; format: functional; conditions: Candidozyma auris

T1 sequence (P10613 whole entry): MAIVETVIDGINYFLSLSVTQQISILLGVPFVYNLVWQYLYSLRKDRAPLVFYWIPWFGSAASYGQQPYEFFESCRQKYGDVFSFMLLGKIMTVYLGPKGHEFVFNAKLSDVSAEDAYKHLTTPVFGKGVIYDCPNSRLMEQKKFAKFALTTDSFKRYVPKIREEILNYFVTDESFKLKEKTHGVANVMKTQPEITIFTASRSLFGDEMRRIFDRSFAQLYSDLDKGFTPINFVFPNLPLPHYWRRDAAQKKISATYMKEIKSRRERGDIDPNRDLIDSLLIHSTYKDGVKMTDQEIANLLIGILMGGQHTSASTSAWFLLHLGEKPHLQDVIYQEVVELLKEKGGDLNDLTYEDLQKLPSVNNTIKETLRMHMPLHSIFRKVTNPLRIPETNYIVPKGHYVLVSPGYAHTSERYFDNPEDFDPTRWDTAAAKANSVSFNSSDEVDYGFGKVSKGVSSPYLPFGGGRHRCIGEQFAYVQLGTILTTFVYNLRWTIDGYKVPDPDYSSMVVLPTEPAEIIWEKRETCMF

Structure (SMILES): C[C@@H](c1ncncc1F)[C@](O)(Cn1cncn1)c1ccc(F)cc1F [VORICONAZOLE]
- MIC (Candida albicans [1]): > 64 µg/mL
- MIC (Aspergillus fumigatus [2]): 0.25 µg/mL (≈ 0.716 µM)
- MIC (Pichia kudriavzevii [3]): 0.0625 µg/mL (≈ 0.179 µM)
- MIC (Candida tropicalis [4]): > 16 µg/mL
- MIC (Candida parapsilosis [5]): 0.0313 µg/mL (≈ 0.0896 µM)
- Activity [6]: 1.63%
- MIC ([Candida] auris [7]): 1 µg/mL (≈ 2.86 µM)
- MIC ([Candida] auris [8]): 2 µg/mL (≈ 5.73 µM)
- MIC (Pichia kudriavzevii [9]): 0.0625 µg/mL (≈ 0.179 µM)
- half-life [10]: 40.2 min
- MIC (Candida albicans [11]): > 64 µg/mL
- Activity (Aspergillus fumigatus [12]): 100%
- MIC (Candida albicans [13]): ≤ 0.0313 µg/mL
- AUC(0-inf) [14]: 2530 ng·h/mL
- MIC (Cryptococcus neoformans [15]): 0.0313 µg/mL (≈ 0.0896 µM)
- MIC (Candida albicans [16]): > 64 µg/mL
- MIC (Candida albicans [17]): > 64 µg/mL
- Activity (Aspergillus fumigatus [18]): 60%
- MIC (Candida parapsilosis [19]): ≤ 0.0313 µg/mL
- Activity [20]: 5.38%
- MIC (Candida albicans [21]): ≤ 0.0313 µg/mL
- MIC (Candida albicans [22]): > 16 µg/mL
- AUC(0-inf) [23]: 7200 ng·h/mL
- MIC (Nakaseomyces glabratus [24]): 0.125 µg/mL (≈ 0.358 µM)
- MIC (Nannizzia gypsea): 0.25 µg/mL (≈ 0.716 µM)
- viability at 24 h, 64 ug/ml (in vitro): 103%
- MIC (Candida parapsilosis [25]): ≤ 0.0313 µg/mL
- MIC (Candida tropicalis [26]): 8 µg/mL (≈ 22.9 µM)
- MIC (Nakaseomyces glabratus [27]): 0.125 µg/mL (≈ 0.358 µM)
- MIC (Cryptococcus neoformans [28]): 0.0156 µg/mL (≈ 0.0447 µM)
- MIC (Pichia kudriavzevii [29]): 0.125 µg/mL (≈ 0.358 µM)
- half-life [30]: 234 min
- Activity [31]: 5.84%
- MIC (Trichophyton rubrum): 0.0625 µg/mL (≈ 0.179 µM)
- MIC (Candida parapsilosis [32]): 0.0313 µg/mL (≈ 0.0896 µM)
- MIC (Pichia kudriavzevii [33]): 0.125 µg/mL (≈ 0.358 µM)
- MIC (Candida albicans [34]): 0.0156 µg/mL (≈ 0.0447 µM)
- Cmax [35]: 877 ng/mL
- MIC ([Candida] auris [36]): 2 µg/mL (≈ 5.73 µM)
- MIC (Candida albicans [37]): 0.0313 µg/mL (≈ 0.0896 µM)
- Tmax [38]: 53.4 min
- viability at 24 h, 64 ug/ml [39]: 93.4%
- bioavailability [40]: 26%
- hemolysis at 1 h, 64 ug/ml [41]: 1.07%
- Activity [42]: 87.15%

Structure (SMILES): CC[C@@H]([C@H](C)O)n1ncn(-c2ccc(N3CCN(c4ccc(OC[C@@H]5CO[C@@](Cn6cncn6)(c6ccc(F)cc6F)C5)cc4)CC3)cc2)c1=O [POSACONAZOLE]
- MIC (Candida albicans [1]): > 64 µg/mL
- MIC (Aspergillus fumigatus [2]): 0.5 µg/mL (≈ 0.713 µM)
- MIC (Pichia kudriavzevii [3]): 2 µg/mL (≈ 2.85 µM)
- MIC (Candida tropicalis [4]): > 16 µg/mL
- MIC (Candida parapsilosis [5]): 1 µg/mL (≈ 1.43 µM)
- MIC ([Candida] auris [7]): ≤ 0.125 µg/mL
- MIC ([Candida] auris [8]): ≤ 0.125 µg/mL
- MIC (Pichia kudriavzevii [9]): 2 µg/mL (≈ 2.85 µM)
- MIC (Candida albicans [11]): > 64 µg/mL
- MIC (Candida albicans [13]): 0.5 µg/mL (≈ 0.713 µM)
- MIC (Cryptococcus neoformans [15]): 0.5 µg/mL (≈ 0.713 µM)
- MIC (Candida albicans [16]): > 64 µg/mL
- MIC (Candida albicans [17]): > 64 µg/mL
- MIC (Candida parapsilosis [19]): 0.5 µg/mL (≈ 0.713 µM)
- MIC (Candida albicans [21]): 0.5 µg/mL (≈ 0.713 µM)
- MIC (Candida albicans [22]): > 16 µg/mL
- viability at 24 h, 64 ug/ml (in vitro): 68.3%
- MIC (Candida parapsilosis [25]): 0.5 µg/mL (≈ 0.713 µM)
- MIC (Candida tropicalis [26]): > 16 µg/mL
- MIC (Nakaseomyces glabratus [27]): 2 µg/mL (≈ 2.85 µM)
- MIC (Pichia kudriavzevii [29]): 2 µg/mL (≈ 2.85 µM)
- MIC ([Candida] auris [43]): ≤ 0.125 µg/mL
- MIC (Pichia kudriavzevii [33]): 2 µg/mL (≈ 2.85 µM)
- MIC ([Candida] auris [36]): ≤ 0.125 µg/mL
- MIC (Candida albicans [37]): 0.125 µg/mL (≈ 0.178 µM)
- viability at 24 h, 64 ug/ml [39]: 115%
